Experimental data from patent US8242115B2, “Materials and methods to potentiate cancer treatment” (Luitpold Pharmaceuticals, Inc., priority 2000, dated 2012).

Columns and labels:
human DNA-PK = biological target: T1, human DNA-PK (Homo sapiens, UniProt P78527); assay: Standard DNA-PK assay (p53 peptide phosphorylation); format: biochemical; details: read-out: IC50 (nM) DNA-PK Assay
T1 construct: The frozen HeLa cell pellet was thawed at 37° C. and immediately centrifuged; endogenous in cells; host or cells: HeLa S3 cells (ATCC CCL-2.2); Endogenous enzyme purified via S100-2 fraction, Q-Sepharose FF and SP-Sepharose FF (fraction IV)
Description: Reactions were carried out at room temperature. Reactions were started by addition of ATP and stopped by application to phosphocellulose paper. Reaction products spotted onto phosphocellulose paper were washed five times with a total volume of at least 250 mL 10% acetic acid or 150 mM phosphoric acid. The paper was air dried and radioactivity was determined in a Beckman LS6000IC scintillation counter.

[1] = system: human colon carcinoma cell line HCT116; assay: cells; format: cell-based
Description: Cells plated at a density of 5,000 to 20,000 per well in 96-well microtiter plates were grown in RMPI 1640 containing 10% FBS, 100 U/mL penicillin and 100 μg/mL streptomycin, for 18 h at 37° C. in a humidified incubator with 5% CO2. Cells tested included ACHN, 786-0, HCT-116, SW620, SK-MEL-5, SK-MEL-28, A549, H322, OVCAR-3, SK-OV-3, MCF-7, MDA-MB-231, MOLT4, HL60, SNB-19, PC-3. Cells were treated with media containing chemotherapeutic drugs alone or with media containing chemotherapeutic drugs and a DNA-PK inhibitor of the invention, 1-(2-hydroxy-4-morpholin-4-yl-phenyl)-ethanone. Cells were incubated for two days before growth was measured using a tetrazolium dye assay (MTS). Chemotherapeutic drugs included bleomycin etoposide, vinblastine, doxorubicin, paclitaxel, cisplatin, chlorambucil, cyclophosphamide, 5-fluorouracil, cytosine-arabinoside, 6-mercaptoguanine and methotrexate (all purchased from Sigma). The drug concentration necessary to inhibit cell growth to 50% of untreated control cells was defined as the GI50.

[2] = system: MDA-MB231 (human breast carcinoma) cells; assay: DNA double-strand break repair assay (pulse field electrophoresis); format: cell-based; details: 25 Gy; concentrations which enhanced radiation induced cell killing
Description: To further determine the cellular effect of DNA-PK inhibitors, an assay to measure chromosomal discontinuities was employed. Ionizing radiation induces chromosomal DNA double-strand breaks. Following high dose radiation, chromosomes can be extracted from cells and fractionated by pulse field electrophoresis to distinguish chromosomal fragments from intact larger chromosomes. Using this technique, the activity of DNA-PK inhibitors was measured.
MDA-MB231 (human breast carcinoma) cells were seeded onto T25 flasks with RPMI1640+10% FBS, 2 mM L-glutamine, penicillin G 100 U/ml-streptomycin sulfate 10 μg/ml, 1 mM Na pyruvate. When confluent, media was removed and replaced with media containing DNA-PK inhibitor or vehicle. Cells were incubated at 37° C. for 1 hr in a humidified chamber with 5% CO2. Media then was removed and flasks were filled with ice-cold D-PBS and either: (a) processed immediately; (b) irradiated (25 Gy in a ^137Cs Mark I irradiator at a flux of 335 rad/min) and processed immediately; (c) irradiated and incubated for 2 hr in complete RPMI1640+vehicle at 37° C. (in humidified 5% CO2 atmosphere to allow for DNA repair), or (d) irradiated and incubated for 2 hr in complete RPMI1640+DNA-PK inhibitor compound. […] Chromosomal DNA was visualized with SYBR-Gold (Molecular probes # S-11494) and the fluorescent image quantified on the STORM 860 (Molecular Dynamics).

[3] = system: HCT116 cells (human colon carcinoma) xenograft tumors; assay: Animal tumor model, drug plus γ-radiation; format: in vivo, athymic BALB/c (nu/nu) mice; set-up: tumor growth with radiation plus drug: dose or concentration left out as unconfirmed; details: 250 rad plus drug once daily for five days
Description: HCT116 cells (human colon carcinoma) were used to propagate xenograft tumors in 6-8 week old female athymic BALB/c (nu/nu) mice. Mice were maintained in a laminar airflow cabinet under pathogen-free conditions and fed sterile food and water ad libitum. HCT116 cells were grown to subconfluence in McCoy's media supplemented with 10% FBS, 100 U/mL penicillin, 100 μg/mL streptomycin, and 1.5 mM L-glutamine in a 5% CO2 humidified environment. Single cell suspensions were prepared in CMF-PBS (0.9 mM KCl, 2.7 mM KH2PO4, 13.8 mM NaCl, pH 7.5), and cell concentration adjusted to 4×10^7 cells/mL. Mice were inoculated subcutaneously (s.c.) on the right flank or right leg with a total of 4×10^6 cells (100 μL).
Mice were randomized (5 mice/group) into four treatment groups and used when tumors reached a weight of 75 to 100 mg (usually 7 to 11 days post-inoculation). Tumors were measured with vernier calipers and tumor weights were estimated using the empirically-derived formula below. Tumor weight(mg)=tumor length(mm)×tumor width(mm)^2/3.3. […] Tumor size was monitored every other day for the duration of the experiment.

[4] = system: Colon carcinoma cells (HCT116)
[5] = Pharmacokinetic analysis after subcutaneous administration; format: in vivo, mice

In the case of `CC(=O)c1ccc(N2CCOCC2)cc1O` [Example 34, 1-(2-Hydroxy-4-morpholin-4-yl-phenyl)-ethanone], the IC50 (human DNA-PK) is reported as 120 nM, the “GI50 (bleomycin) reduced” value ([1]; 100 μM inhibitor, two days) is reported as 7 fold and the “potentiation of growth inhibitory effects of agents that do not induce DNA dsbs” value ([1]; vinblastine, doxorubicin, paclitaxel, cisplatin, cyclophosphamide, 5-fluorouracil, cytosine-arabinoside, 6-mercaptoguanine, methotrexate) is reported as “did not potentiate”. The “chlorambucil GI50 reduced” value ([1]; with inhibitor, two days) was 10 fold, the “etoposide GI50 reduced” value ([1]; with inhibitor, two days) was 10 fold and the “chromosomal DNA double-strand break repair” value [2] was “inhibited DNA double-strand break repair”. The “tumor growth with radiation plus drug” value [3] was “no increase in tumor growth”, the “effect of drug alone on cell division” value [4] was “no effect on cell division” and the “enhancement of etoposide LD50” value [4] was 15 fold. For the same molecule, the “enhancement of etoposide LD90” value [4] was 3 fold, the “radiation LD50 lower than in the absence of drug” value ([4]; 200 μM) was 4 fold and the “radiation LD90 lower than without drug” value ([4]; 200 μM) was 4 fold. The “sensitivity of HCT116 to killing by γ-radiation” value ([4]; 200 μM) was “increased the sensitivity”, the “radiation dosage which kills 50% of the cells (LD50) in the presence of drug” value ([4]; 200 μM, 150 rad without drug) was 35 rad and the “radiation dose that kills 90% of the cells (LD90) with drug” value ([4]; 200 μM, 410 rad without drug) was 100 rad. For the same molecule, the “D0, slope of the survival curve, with drug” value ([4]; 150 rad without drug) was 50 rad and the “duration of high plasma concentration” value [5] was “remained high for about one hour”.
